# Measurements from US11447486B2, “2-amino-benzimidazole derivatives and their use as 5-lipoxygenase and/or prostaglandin E synthase inhibitors” (INSTITUT PASTEUR KOREA, priority 2014, dated 2022).
# Tests used:
# Rat whole blood (RWB) = assay: LTB4 secretion assay in RWB (rat whole blood); type: cell-based; settings: Rattus norvegicus
# Method: Rat blood was drawn from caudal vena cava from male Sprague Dawley rat (6-9 weeks old) in vacuette coated with sodium heparin (Greiner bio-one, Cat #455051). The blood was pooled and diluted with RPMI (WelGENE, Cat #LM 011-05) to 1:1. The diluted blood was aliquoted into 96 well plate (200 ul per well) and compounds were added in dose response to a desired concentration ranging from 2.5 nM to 50 uM. After 15 min of pre-incubation at 37° C., calcium ionophore (A23187) was added to the final concentration of 10 uM. After 10 min of further incubation at 37° C., the LTB4 production was stopped by diluting the reaction mixture with ice cold PBS (1:4 dilutions). Cells were removed by centrifugation at 1000×g, 4° C. for 10 min, and the supernatant was transferred and then the quantification of LTB4 was done with Leukotriene B4 EIA kit (Cayman, Cat #520111) as instructed.
# human 5-LOX = biological target: T1, human 5-LOX (Homo sapiens, UniProt P09917); assay: 5-LOX enzyme activity, fluorescence method (5-HPETE, H2DCFDA); type: biochemical; settings: read-out: 5-LO (IC50)
# T1 construct: purchased Cayman 60402; host or cells: insect cells (lysate)
# T1 sequence (P09917 1-674): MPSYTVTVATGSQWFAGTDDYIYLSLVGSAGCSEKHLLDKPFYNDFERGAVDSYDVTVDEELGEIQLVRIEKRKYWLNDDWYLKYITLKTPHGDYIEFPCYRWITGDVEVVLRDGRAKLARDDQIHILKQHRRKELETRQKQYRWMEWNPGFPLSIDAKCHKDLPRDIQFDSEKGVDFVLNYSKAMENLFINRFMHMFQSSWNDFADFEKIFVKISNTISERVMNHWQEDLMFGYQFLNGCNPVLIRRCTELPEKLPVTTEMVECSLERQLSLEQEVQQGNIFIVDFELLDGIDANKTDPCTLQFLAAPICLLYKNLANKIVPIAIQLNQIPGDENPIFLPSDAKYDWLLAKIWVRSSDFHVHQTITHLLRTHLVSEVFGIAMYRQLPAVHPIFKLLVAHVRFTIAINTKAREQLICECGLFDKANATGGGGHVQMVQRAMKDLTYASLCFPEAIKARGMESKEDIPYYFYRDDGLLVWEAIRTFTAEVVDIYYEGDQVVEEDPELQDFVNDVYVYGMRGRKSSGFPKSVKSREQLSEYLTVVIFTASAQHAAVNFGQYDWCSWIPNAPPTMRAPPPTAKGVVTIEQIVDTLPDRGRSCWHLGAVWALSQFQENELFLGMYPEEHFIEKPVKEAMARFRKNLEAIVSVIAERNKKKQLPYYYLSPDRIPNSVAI
# In short: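 Fluorescence-based read-out, run entirely at room temperature. Enzyme mixture was exposed to a dose range of compound from 0.5 nM to 10 uM for 5 min before ATP and arachidonic acid were added to final levels of 100 uM and 3 uM.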
# [1] = system: Rat basophilic leukemia (RBL) cells; assay: LTB4 secretion assay in RBL (rat basophilic leukemia cells); type: cell-based; settings: Rattus norvegicus, RBL
# In short: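 LTB4 released into supernatant was measured by EIA after 10 min at 37 °C with arachidonic acid (2.5 uM final) and calcium ionophore A23187 (5 uM final). Before stimulation, cells plated 2×10^4/well overnight received compound doses (5 nM to 100 uM) for 15 min in 0.5% FBS medium.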
SMILES,EC50 (Rat whole blood (RWB)) [µM],IC50 (human 5-LOX) [µM],EC50 [1] [µM]
Fc1ccc(Nc2ccc3[nH]c(NCc4ccc(Oc5ccc(Cl)cc5)cc4)nc3c2)cn1 [Compound 23],10 to 20,1 to 10,–
CCOC(=O)c1c[nH]nc1Nc1ccc2[nH]c(NCc3ccc(Oc4ccc(Cl)cc4)cc3)nc2c1 [Compound 13],> 20,1 to 10,–
CCOC(=O)c1c[nH]nc1Nc1ccc2nc(N)n(CCOc3ccc(OC(F)(F)F)cc3)c2c1 [Compound 22],> 20,> 10,–
CN(C)c1nc2ccc(Nc3ccn(C)n3)cc2n1CCOc1ccc(OC(F)(F)F)cc1 [Compound 45],–,> 10,< 10
CC(C)(C)Nc1nc2cc(N)ccc2n1CC(=O)Nc1ccc(OC(F)(F)F)cc1 [Compound 69],–,1 to 10,< 10
Cn1c(NCc2ccc(Oc3nccc(C(F)(F)F)n3)cc2)nc2ccc(N)cc21 [Compound 363],–,< 1,> 20
Cn1c(NCc2ccc(Oc3ncc(Cl)cn3)cc2)nc2ccc(Nc3n[nH]cc3C(=O)NC3CC3)cc21 [Compound 483],–,< 1,> 20
CN(C)c1nc2ccc(NCc3ccc(-c4cccc(=O)[nH]4)cc3)cc2[nH]1 [Compound 221],–,< 1,> 20
Cn1c(NCc2ccc(Oc3ncc4ccc(Cl)cc4n3)cc2)nc2ccc(NC3COC3)cc21 [Compound 444],–,< 1,10 to 20
Cn1ccc(Nc2ccc3nc(NCc4ccc(Oc5ncc(Cl)cn5)cc4)[nH]c3c2F)n1 [Compound 480],–,< 1,< 10
Cn1c(NCc2ccc(Oc3ccnc4cc(Cl)ccc34)cc2)nc2ccc(N)cc21 [Compound 375],–,< 1,< 10
Nc1ccc2nc(NCCC(F)(F)F)n(Cc3ccc(Oc4ccc(Cl)cc4)cc3)c2c1 [Compound 264],–,< 1,< 10
Cn1c(NCc2ccc(Oc3ncc(Cl)c4ccccc34)cc2)nc2ccc(NC3COC3)cc21 [Compound 400],–,< 1,< 10
Cn1c(NCc2ccc(Oc3ccc(Cl)cc3)cc2)nc2ccc(N3CCC3)cc21 [Compound 182],–,< 1,10 to 20
Cn1c(NCc2ccc(Oc3ncc4ccc(Cl)cc4n3)cc2)nc2ccc(N)cc21 [Compound 440],–,< 1,< 10
CCC(Nc1nc2ccc(NC3COC3)cc2n1C)c1ccc(Oc2ncc(Cl)cn2)cc1 (stereo not drawn) [Compound 453],–,< 1,< 10
CN(C)CCn1c(NCc2ccc(Oc3ccc(Cl)cn3)cc2)nc2ccc(N)cc21 [Compound 286],–,< 1,< 10
Cn1c(NCc2ccc(Oc3ccc4ccc(Cl)cc4n3)cc2)nc2ccc(N)cc21 [Compound 419],–,< 1,< 10
Cn1c(NCc2ccc(Oc3nccc4cc(Cl)ccc34)cc2)nc2ccc(N)cc21 [Compound 438],–,< 1,10 to 20
CN(C)c1nc2cc(Nc3ccn(C)n3)ccc2n1CCOc1ccc(OC(F)(F)F)cc1 [Compound 46],–,> 10,< 10
Cn1c(NCc2ccc(Oc3ccc(Cl)cn3)cc2)nc2ccc(NCCc3ccccn3)cc21 [Compound 329],–,< 1,< 10
Cc1cc(Oc2ccc(Cl)cn2)ccc1CNc1nc2ccc(N)cc2n1C [Compound 290],–,< 1,< 10
FC1(F)CN(c2ccc3nc(NCc4ccc(Oc5ccc(Cl)cc5)cc4)[nH]c3c2)C1 [Compound 242],–,1 to 10,< 10
Cc1ccc(Oc2ccc(CNc3nc4ccc(NC5COC5)cc4n3C)cc2)nn1 [Compound 312],–,< 1,> 20
Cn1c(NCc2ccc(-n3ccc4cc(Cl)cnc43)cc2)nc2ccc(N)cc21 [Compound 445],–,< 1,< 10

# The remaining lines, values ahead:
EC50 (Rat whole blood (RWB)) [µM],IC50 (human 5-LOX) [µM],EC50 [1] [µM],SMILES
> 20,< 1,–,Nc1ccc2[nH]c(NCc3ccc4oc(-c5ccc(OC(F)(F)F)cc5)nc4c3)nc2c1 [Compound 1]
> 20,< 1,–,Nc1ccc2[nH]c(NCc3ccc(N4CCOCC4)cc3)nc2c1 [Compound 7]
> 20,< 1,–,Cc1cc(Nc2ccc3[nH]c(NCc4ccc(Oc5ccc(Cl)cc5)cc4)nc3c2)n[nH]1 [Compound 8]
10 to 20,< 1,–,Nc1ccc2[nH]c(NCc3ccc(Oc4ccc(Cl)cc4)cc3F)nc2c1 [Compound 10]
< 10,< 1,–,O=C(NC1CC1)c1c[nH]nc1Nc1ccc2[nH]c(NCc3ccc(Oc4ccc(Cl)cc4)cc3)nc2c1 [Compound 12]
10 to 20,< 1,–,Nc1ccc2[nH]c(NCc3ccc(Oc4ccc(Cl)cc4)cc3Cl)nc2c1 [Compound 9]
> 20,< 1,–,CC(C)(Nc1nc2cc(N)ccc2[nH]1)c1ccc(Oc2ccc(Cl)cc2)cc1 [Compound 20]
> 20,< 1,–,Nc1ccc2[nH]c(NCc3ccc(N4CCC(Oc5ccc(Cl)cc5)C4)cc3)nc2c1 (stereo not drawn) [Compound 3]
10 to 20,< 1,–,Nc1ccc2[nH]c(NCc3ccc(N4CCC(COc5ccc(Cl)cc5)CC4)cc3)nc2c1 [Compound 5]
> 20,< 1,–,Clc1ccc(Oc2ccc(CNc3nc4cc(Nc5cccnc5)ccc4[nH]3)cc2)cc1 [Compound 16]
> 20,< 1,–,Nc1ccc2[nH]c(NCc3ccc(OCc4ccc(Cl)cc4)cc3)nc2c1 [Compound 4]
> 20,< 1,–,Nc1ccc2nc(N)n(CCc3ccc(Oc4ccc(Cl)cc4)cc3)c2c1 [Compound 15]
< 10,< 1,–,Nc1ccc2[nH]c(NCCc3ccc(Oc4ccc(Cl)cc4)cc3)nc2c1 [Compound 11]
–,< 1,10 to 20,Nc1ccc2[nH]c(N3CCC(Oc4ccc(OC(F)(F)F)cc4Cl)C3)nc2c1 (stereo not drawn) [Compound 71]
–,< 1,> 20,CC(C)(CO)Nc1ccc2[nH]c(NCc3ccc(Cl)cc3F)nc2c1 [Compound 31]
–,< 1,< 10,Nc1ccc2nc(N)n(Cc3ccc(Oc4ccc(Cl)cn4)c(F)c3)c2c1 [Compound 248]
–,< 1,10 to 20,FC(F)(F)Oc1ccc(OC2CCN(c3ccc4nc(NCCN5CCOCC5)[nH]c4c3)C2)cc1 (stereo not drawn) [Compound 143]
–,< 1,> 20,CN(C)c1nc2cc(NCc3ccc(CC(N)=O)cc3)ccc2[nH]1 [Compound 232]
–,< 1,< 10,Nc1ccc2nc(NCC(Oc3ccc(Cl)cc3)c3ccccc3)[nH]c2c1 (stereo not drawn) [Compound 169]
–,< 1,10 to 20,Cn1c(NCc2ccc(Oc3nc4ccccc4n3C)cc2)nc2ccc(N)cc21 [Compound 356]
–,< 1,< 10,CCOC(=O)CN(c1ccc(F)cc1)c1ccc(CNc2ccc3nc(N(C)C)[nH]c3c2)cc1 [Compound 185]
–,< 1,> 20,Nc1ccc2nc(NCc3ccc4cccnc4c3)[nH]c2c1 [Compound 159]
–,< 1,10 to 20,Nc1ccc2nc(N3CCC(C(=O)c4ccc(OC(F)(F)F)cc4)C3)[nH]c2c1 (stereo not drawn) [Compound 178]
–,< 1,> 20,Cn1c(N2CCC(COc3ccc(Cl)cc3)CC2)nc2ccc(N)cc21 [Compound 163]
–,< 1,< 10,Cn1c(NCc2ccc(Oc3ncc(Cl)cn3)cc2F)nc2ccc(N)cc21 [Compound 380]
–,< 1,> 20,CN(C)c1nc2cc(NCc3ccc(-c4nc(C(=O)O)co4)cc3)ccc2[nH]1 [Compound 228]
–,< 1,< 10,Cn1c(NCc2ccc3c(ccn3-c3ccc(Cl)cn3)c2)nc2ccc(N)cc21 [Compound 451]
–,< 1,< 10,Cn1c(NCc2ccc(Oc3ccc4cccc(Cl)c4n3)cc2)nc2ccc(NC3COC3)cc21 [Compound 422]
–,< 1,< 10,CC(C)(O)Cn1c(NCc2ccc(Oc3ccc(Cl)cn3)cc2)nc2ccc(NC3COC3)cc21 [Compound 208]
